# Results as given in patent US9050344B2, “Therapeutic compounds” (Gilead Sciences, Inc., priority 2013, dated 2015).
# Legend:
# [1] = Test B: Cytotoxicity Assay (protocol of Test A, uninfected cells); assay type: cell-based; conditions: human, uninfected MT-4 cells, CellTiter-Glo
# Method: Test B: Cytotoxicity Assay Compound cytotoxicity and the corresponding CC50 values was determined using the same protocol as described in the antiviral assay (Test A) except that uninfected cells were used.
# HIV-IIIb = test: Test A: Antiviral Assay in MT4 Cells; assay type: cell-based, HIV-1; conditions: Human immunodeficiency virus 1, IIIB, MT4, 120 h, read-out: % inhibition at 3 μM
# Method: Test A: Antiviral Assay in MT4 Cells
# For the antiviral assay, 40 μL of 1× test concentration of 3-fold serially diluted compound in culture medium with 10% FBS was added to each well of a 384-well plate (10 concentrations) in quadruplicate. MT-4 cells were next mixed with HIV-IIIb at an m.o.i of 0.003 for 1 hour, after which time 35 μL of virus/cell mixture (2000 cells) was immediately added to each well containing 40 μL of diluted compound. The plates were then incubated at 37° C. for 5 days. After 5 days of incubation, 25 μl of 2× concentrated CellTiter-Glo™ Reagent (catalog #G7571, Promega Biosciences, Inc., Madison, Wis.) was added to each well containing MT-4 cells. Cell lysis was carried out by incubating at room temperature for 10 min and then chemiluminescence was read.
Compound,CC50 at 5 days [1] [µM],inhibition at 3 µM (HIV-IIIb) [%]
"CSc1cnc([C@H](Cc2cc(F)cc(F)c2)NC(=O)Cn2nc(C(F)F)c3c2C(F)(F)[C@@H]2C[C@H]32)c(-c2cccc3c(NS(C)(=O)=O)nn(C)c23)n1 [Compound 55G, 2-((3bS,4aR)-3-(difluoromethyl)-5,5-difluoro-3b,4,4a,5-tetrahydro-1H-cyclopropa[3,4]cyclopenta[1,2-c]pyrazol-1-yl)-N—((S)-2-(3,5-difluorophenyl)-1-(3-(1-methyl-3-(methylsulfonamido)-1H-indazol-7-yl)-5-(methylthio)pyrazin-2-yl)ethyl)acetamide]",22.1,107
"Cc1nc([C@H](Cc2cc(F)cc(F)c2)NC(=O)Cn2nc(C(F)(F)F)c3c2C(F)(F)[C@@H]2C[C@H]32)c(-c2cccc3c(NS(C)(=O)=O)nn(C)c23)cc1N [Compound 45, N—((S)-1-(5-amino-6-methyl-3-(1-methyl-3-(methylsulfonamido)-1H-indazol-7-yl)pyridin-2-yl)-2-(3,5-difluorophenyl)ethyl)-2-((3bS,4aR)-5,5-difluoro-3-(trifluoromethyl)-3b,4,4a,5-tetrahydro-1H-cyclopropa[3,4]cyclopenta[1,2-c]pyrazol-1-yl)acetamide]",21.5,110
"Cn1nc(NS(C)(=O)=O)c2c(Cl)ccc(-c3cc(N)c(Cl)nc3[C@H](Cc3cc(F)cc(F)c3)NC(=O)Cn3nc(C(F)(F)F)c4c3C(F)(F)[C@@H]3C[C@H]43)c21 [Compound 54, N—((S)-1-(5-amino-6-chloro-3-(4-chloro-1-methyl-3-(methylsulfonamido)-1H-indazol-7-yl)pyridin-2-yl)-2-(3,5-difluorophenyl)ethyl)-2-((3bS,4aR)-5,5-difluoro-3-(trifluoromethyl)-3b,4,4a,5-tetrahydro-1H-cyclopropa[3,4]cyclopenta[1,2-c]pyrazol-1-yl)acetamide]",12.1,92
"Cc1c(-c2cc(NS(C)(=O)=O)cnc2[C@H](Cc2cc(F)cc(F)c2)NC(=O)Cn2nc(C(F)(F)F)c3c2C(F)(F)[C@@H]2C[C@H]32)ccc2n[nH]c(=O)n12 [Compound 41E, 2-((3bS,4aR)-5,5-difluoro-3-(trifluoromethyl)-3b,4,4a,5-tetrahydro-1H-cyclopropa[3,4]cyclopenta[1,2-c]pyrazol-1-yl)-N—((S)-2-(3,5-difluorophenyl)-1-(3-(5-methyl-3-oxo-2,3-dihydro-[1,2,4]triazolo[4,3-a]pyridin-6-yl)-5-(methylsulfonamido)pyridin-2-yl)ethyl)acetamide]",> 50,91
"CC(=O)Nc1cnc([C@H](Cc2cc(F)cc(F)c2)NC(=O)Cn2nc(C(F)(F)F)c3c2C(F)(F)[C@@H]2C[C@H]32)c(-c2cccc3c(NS(C)(=O)=O)nn(C)c23)c1 [Compound 39, N—((S)-1-(5-acetamido-3-(1-methyl-3-(methylsulfonamido)-1H-indazol-7-yl)pyridin-2-yl)-2-(3,5-difluorophenyl)ethyl)-2-((3bS,4aR)-5,5-difluoro-3-(trifluoromethyl)-3b,4,4a,5-tetrahydro-1H-cyclopropa[3,4]cyclopenta[1,2-c]pyrazol-1-yl)acetamide]",29.6,92
"CN1CCN(c2ccc(-c3ccc(Cl)c4c(NS(C)(=O)=O)nn(C)c34)c([C@H](Cc3cc(F)cc(F)c3)NC(=O)Cn3nc(C(F)(F)F)c4c3C(F)(F)[C@@H]3C[C@H]43)n2)CC1 [Compound 60C, N—((S)-1-(3-(4-chloro-1-methyl-3-(methylsulfonamido)-1H-indazol-7-yl)-6-(4-methylpiperazin-1-yl)pyridin-2-yl)-2-(3,5-difluorophenyl)ethyl)-2-((3bS,4aR)-5,5-difluoro-3-(trifluoromethyl)-3b,4,4a,5-tetrahydro-1H-cyclopropa[3,4]cyclopenta[1,2-c]pyrazol-1-yl)acetamide]",9.11,90
